Measurements reported in patent US20240325544A1, “CATIONIC LIPID FOR COVALENT MODIFICATION OF PEPTIDES” (PharmalN Corporation, priority 2023, published 2024).
Where two headings read alike, the source gives them in different places. Marks after values point to notes of the source that are not given here. Bridge positions count the residues as written; N and C are the ends. Square brackets hold non-standard residues; d marks the D form. Peptide text beside a SMILES is read from it. * marks the point of attachment. C18 diacid = O=C(O)CCCCCCCCCCCCCCCCC(=O)*; Palmitoyl = CCCCCCCCCCCCCCCC(=O)*; Dab = NCC[C@H](N)C(=O)O; Dap = NC[C@H](N)C(=O)O; AEEA = NCCOCCOCC(=O)O; GABA = NCCCC(=O)O

Legend:
[1] = Plasma concentration of respective natriuretic peptide by ELISA after SC bolus in CD-1 mice (pharmacokinetics, Table 3); conditions: male, CD-1, mouse, in vivo
Protocol: (§1) The test articles were formulated or dissolved in sterile water for injection on the same day of administration. […] Blood samples were collected via retro-orbital bleed at 2- and 6-hours post-injection, with two bleedings per animal at two different timepoints. The samples were collected in K2EDTA tubes, processed by centrifugation (2000×g; 15 m 4 eC within 30 minutes after collection), and the resulting plasma samples were stored at −80° C. Biochemical analysis: The plasma concentration of the respective natriuretic peptide was analyzed using commercially available ELISA kits from Phoenix Pharmaceuticals (Burlingame, CA): ANP ELISA (cat #EKE-005-06), BNP ELISA (cat #EKE-011-03), and CNP ELISA (cat #EKE-012-03). […] Plasma cGMP was analyzed using a commercially available kit from Abcam (ab133052, Waltham, MA).

cGMP = assay: Plasma cGMP after SC bolus of natriuretic peptides in CD-1 mice (pharmacodynamics, Table 3); type: in vivo; conditions: SC bolus 1.0 mg/kg (≤0.45 μmol/kg), baseline 10 +/−8 pmol/ml, n = 3-5
Protocol: as §1

| Structure (SMILES) | level at 2 h ([1]; mice, SC bolus 1.0 mg/kg (≤0.45 μmol/kg), 2 hr, ELISA, n = 3-5, read-out: Plasma concentration of respective Natriuretic Peptide, ANP, BNP, or CNP, 2 hr) [ng/mL] | level at 6 h ([1]; mice, SC bolus 1.0 mg/kg (≤0.45 μmol/kg), 6 hr, ELISA, n = 3-5, read-out: Plasma concentration of respective Natriuretic Peptide, ANP, BNP, or CNP, 6 hr) [ng/mL] | Plasma concentration of cGMP, 2 hr (cGMP) | Plasma concentration of cGMP, 6 hr (cGMP) | level at 2 h ([1]; sc, 1 mg/kg) [ng/mL] | level at 6 h ([1]; sc, 1 mg/kg) [ng/mL] |
| --- | --- | --- | --- | --- | --- | --- |
| CC[C@H](C)[C@@H]1NC(=O)[C@H](CCCNC(=N)N)NC(=O)[C@H](CC(=O)O)NC(=O)[C@H](CC(C)C)NC(=O)[C@H](CCCCN)NC(=O)[C@H](CC(C)C)NC(=O)CNC(=O)[C@H](Cc2ccccc2)NC(=O)[C@@H](NC(=O)CNC(=O)[C@H](CCCCN)NC(=O)[C@H](CO)NC(=O)[C@H](CC(C)C)NC(=O)CN)CSSC[C@@H](C(=O)O)NC(=O)CNC(=O)[C@H](CC(C)C)NC(=O)CNC(=O)[C@H](CO)NC(=O)[C@H](CCSC)NC(=O)[C@H](CO)NC(=O)CNC1=O [SEQ ID NO: 32, reference compound] | 2.17 | 2.91 | 8.7 pmol/mL | 9.5 pmol/mL |  |  |
| CC[C@H](C)[C@@H]1NC(=O)[C@H](CCCNC(=N)N)NC(=O)[C@H](CC(=O)O)NC(=O)[C@H](CC(C)C)NC(=O)[C@H](CCCCN)NC(=O)[C@H](CC(C)C)NC(=O)CNC(=O)[C@H](Cc2ccccc2)NC(=O)[C@@H](NC(=O)CNC(=O)[C@H](CCCCN)NC(=O)[C@H](CO)NC(=O)[C@H](CC(C)C)NC(=O)CNC(=O)[C@H](CCN)NC(=O)[C@H](CCN)NC(=O)COCCOCCNC(=O)COCCOCCNC(=O)COCCOCCNC(=O)CCCCCCCCCCCCCCCCC(=O)O)CSSC[C@@H](C(=O)O)NC(=O)CNC(=O)[C@H](CC(C)C)NC(=O)CNC(=O)[C@H](CO)NC(=O)[C@H](CCC(N)=O)NC(=O)[C@H](CO)NC(=O)CNC1=O [SEQ ID NO: 33] ({C18 diacid-AEEA-AEEA-AEEA}-[Dab][Dab]GLSKGCFGLKLDRIGSQSGLGC-OH; disulfide 8-24; C-terminus assumed) |  |  | 25.91** pmol/mL | 31.61* pmol/mL | 75.9 | 68.2 |
| CC[C@H](C)[C@@H]1NC(=O)[C@H](CCCNC(=N)N)NC(=O)[C@H](CC(=O)O)NC(=O)[C@H](CC(C)C)NC(=O)[C@H](CCCCN)NC(=O)[C@H](CC(C)C)NC(=O)CNC(=O)[C@H](Cc2ccccc2)NC(=O)[C@@H](NC(=O)CNC(=O)[C@H](CCCCN)NC(=O)[C@H](CO)NC(=O)[C@H](CC(C)C)NC(=O)CNC(=O)[C@H](CCN)NC(=O)[C@H](CCN)NC(=O)COCCOCCNC(=O)COCCOCCNC(=O)CCCCCCCCCCCCCCCCC(=O)O)CSSC[C@@H](C(=O)O)NC(=O)CNC(=O)[C@H](CC(C)C)NC(=O)CNC(=O)[C@H](CO)NC(=O)[C@H](CCC(N)=O)NC(=O)[C@H](CO)NC(=O)CNC1=O [SEQ ID NO: 34] ({C18 diacid-AEEA-AEEA}-[Dab][Dab]GLSKGCFGLKLDRIGSQSGLGC-OH; disulfide 8-24; C-terminus assumed) |  |  | 15.78* pmol/mL | 33.6 pmol/mL | 75.5 | 41 |
| CCCCCCCCCCCCCCCC(=O)NCCOCCOCC(=O)NCCOCCOCC(=O)N[C@@H](CN)C(=O)N[C@@H](CCN)C(=O)NCC(=O)N[C@@H](CC(C)C)C(=O)N[C@@H](CO)C(=O)N[C@@H](CCCCN)C(=O)NCC(=O)N[C@H]1CSSC[C@@H](C(=O)O)NC(=O)CNC(=O)[C@H](CC(C)C)NC(=O)CNC(=O)[C@H](CO)NC(=O)[C@H](CCC(N)=O)NC(=O)[C@H](CO)NC(=O)CNC(=O)[C@H]([C@@H](C)CC)NC(=O)[C@H](CCCNC(=N)N)NC(=O)[C@H](CC(=O)O)NC(=O)[C@H](CC(C)C)NC(=O)[C@H](CCCCN)NC(=O)[C@H](CC(C)C)NC(=O)CNC(=O)[C@H](Cc2ccccc2)NC1=O [SEQ ID NO: 35] ({Palmitoyl-AEEA-AEEA}-[Dap][Dab]GLSKGCFGLKLDRIGSQSGLGC-OH; disulfide 8-24; C-terminus assumed) |  |  | 65.28**** pmol/mL | 35.10** pmol/mL | 12.9 | 4.13 |
| CCCCCCCCCCCCCCCC(=O)NCCCC(=O)NCCCC(=O)NCCCC(=O)N[C@@H](CCN)C(=O)N[C@@H](CCN)C(=O)NCC(=O)N[C@@H](CC(C)C)C(=O)N[C@@H](CO)C(=O)N[C@@H](CCCCN)C(=O)NCC(=O)N[C@H]1CSSC[C@@H](C(=O)O)NC(=O)CNC(=O)[C@H](CC(C)C)NC(=O)CNC(=O)[C@H](CO)NC(=O)[C@H](CCC(N)=O)NC(=O)[C@H](CO)NC(=O)CNC(=O)[C@H]([C@@H](C)CC)NC(=O)[C@H](CCCNC(=N)N)NC(=O)[C@H](CC(=O)O)NC(=O)[C@H](CC(C)C)NC(=O)[C@H](CCCCN)NC(=O)[C@H](CC(C)C)NC(=O)CNC(=O)[C@H](Cc2ccccc2)NC1=O [SEQ ID NO: 36] ({Palmitoyl-GABA-GABA-GABA}-[Dab][Dab]GLSKGCFGLKLDRIGSQSGLGC-OH; disulfide 8-24; C-terminus assumed) |  |  | 54.61*** pmol/mL | 41.75** pmol/mL | 7.57 | 2.57 |
| CCCCCCCCCCCCCCCC(=O)NCCCC(=O)NCCCC(=O)N[C@@H](CCN)C(=O)N[C@@H](CCN)C(=O)NCC(=O)N[C@@H](CC(C)C)C(=O)N[C@@H](CO)C(=O)N[C@@H](CCCCN)C(=O)NCC(=O)N[C@H]1CSSC[C@@H](C(=O)O)NC(=O)CNC(=O)[C@H](CC(C)C)NC(=O)CNC(=O)[C@H](CO)NC(=O)[C@H](CCC(N)=O)NC(=O)[C@H](CO)NC(=O)CNC(=O)[C@H]([C@@H](C)CC)NC(=O)[C@H](CCCNC(=N)N)NC(=O)[C@H](CC(=O)O)NC(=O)[C@H](CC(C)C)NC(=O)[C@H](CCCCN)NC(=O)[C@H](CC(C)C)NC(=O)CNC(=O)[C@H](Cc2ccccc2)NC1=O [SEQ ID NO: 37] ({Palmitoyl-GABA-GABA}-[Dab][Dab]GLSKGCFGLKLDRIGSQSGLGC-OH; disulfide 8-24; C-terminus assumed) |  |  | 39.77* pmol/mL | 22.71** pmol/mL | 11.9 | 5.77 |
| CCCCCCCCCCCCCCCC(=O)N[C@@H](CCC(=O)O)C(=O)NCCOCCOCC(=O)NCCOCCOCC(=O)N[C@@H](CCN)C(=O)N[C@@H](CCN)C(=O)NCC(=O)N[C@@H](CC(C)C)C(=O)N[C@@H](CO)C(=O)N[C@@H](CCCCN)C(=O)NCC(=O)N[C@H]1CSSC[C@@H](C(=O)O)NC(=O)CNC(=O)[C@H](CC(C)C)NC(=O)CNC(=O)[C@H](CO)NC(=O)[C@H](CCC(N)=O)NC(=O)[C@H](CO)NC(=O)CNC(=O)[C@H]([C@@H](C)CC)NC(=O)[C@H](CCCNC(=N)N)NC(=O)[C@H](CC(=O)O)NC(=O)[C@H](CC(C)C)NC(=O)[C@H](CCCCN)NC(=O)[C@H](CC(C)C)NC(=O)CNC(=O)[C@H](Cc2ccccc2)NC1=O [SEQ ID NO: 38] (Palmitoyl-E[AEEA][AEEA][Dab][Dab]GLSKGCFGLKLDRIGSQSGLGC-OH; disulfide 11-27; C-terminus assumed) |  |  | 74.69* pmol/mL | 38.95*** pmol/mL | 31.7 | 25.9 |
| CC[C@H](C)[C@@H]1NC(=O)[C@H](CCCNC(=N)N)NC(=O)[C@H](CC(=O)O)NC(=O)[C@H](CC(C)C)NC(=O)[C@H](CCCCN)NC(=O)[C@H](CC(C)C)NC(=O)CNC(=O)[C@H](Cc2ccccc2)NC(=O)[C@@H](NC(=O)CNC(=O)[C@H](CCCCN)NC(=O)[C@H](CO)NC(=O)[C@H](CC(C)C)NC(=O)CNC(=O)[C@H](CN)NC(=O)[C@H](CN)NC(=O)COCCOCCNC(=O)COCCOCCNC(=O)COCCOCCNC(=O)CCCCCCCCCCCCCCCCC(=O)O)CSSC[C@@H](C(=O)O)NC(=O)CNC(=O)[C@H](CC(C)C)NC(=O)CNC(=O)[C@H](CO)NC(=O)[C@H](CCC(N)=O)NC(=O)[C@H](CO)NC(=O)CNC1=O [SEQ ID NO: 39] ({C18 diacid-AEEA-AEEA-AEEA}-[Dap][Dap]GLSKGCFGLKLDRIGSQSGLGC-OH; disulfide 8-24; C-terminus assumed) |  |  | 13.29 pmol/mL | 43.60 pmol/mL | 50.7 | 23.7 |
| CCCCCCCCCCCCCCCC(=O)NCCOCCOCC(=O)NCCOCCOCC(=O)NCCOCCOCC(=O)N[C@@H](CCN)C(=O)NCC(=O)N[C@@H](CC(C)C)C(=O)N[C@@H](CO)C(=O)N[C@@H](CCCCN)C(=O)NCC(=O)N[C@H]1CSSC[C@@H](C(=O)O)NC(=O)CNC(=O)[C@H](CC(C)C)NC(=O)CNC(=O)[C@H](CO)NC(=O)[C@H](CCC(N)=O)NC(=O)[C@H](CO)NC(=O)CNC(=O)[C@H]([C@@H](C)CC)NC(=O)[C@H](CCCNC(=N)N)NC(=O)[C@H](CC(=O)O)NC(=O)[C@H](CC(C)C)NC(=O)[C@H](CCCCN)NC(=O)[C@H](CC(C)C)NC(=O)CNC(=O)[C@H](Cc2ccccc2)NC1=O [SEQ ID NO: 41] ({Palmitoyl-AEEA-AEEA-AEEA}-[Dab]GLSKGCFGLKLDRIGSQSGLGC-OH; disulfide 7-23; C-terminus assumed) |  |  | 124.77*** pmol/mL | 67.78**** pmol/mL | 26.7 | 30.1 |
